Assay results reported in US11465972B2, “Inhibitors of oxidized low-density lipoprotein receptor 1 and methods of use thereof” (United States Government as represented by the Department …, priority 2015, dated 2022).

Legend:
macrophages = conditions: cited from earlier work
[1] = system: human primary aortic endothelial cells; test: ox-LDL uptake by human primary aortic endothelial cells (flow cytometry); format: cell-based; conditions: Endothelial cell, 0, 5, 50, 100, 250, 500 nM
Procedure: FIG. 7A depicts flow cytometry measurements using human primary aortic endothelial cells in the presence of 0, 5, 50 100, 250 and […] of Formula XVI. FIG. 7B depicts the percentage of internalized ox-LDL. The x-axis represents Formula XVI concentration (nM) and the y-axis represents ox-LDL uptake by ECs.
Ox-LDL uptake by human primary aortic endothelial cells was measured after exposure to 0, 5, 50, 100, 250 and 500 nM of the compound of Formula XVI (compound 13 in Table 3) using flow cytometry.

LOX-1 expression = conditions: cited from earlier work
[2] = biological target: CHO cells expressing LOX-1 (Homo sapiens, UniProt P78380); conditions: only at high concentrations; cited from earlier work

## CCCCCCCCCCCCCCCCCC(=O)Nc1ccc(S(=O)(=O)O)c(NC(=O)CCCCCCCCCCCCCCCCC)c1 [2,4-bis(octadecanoylamino) benzenesulfonic acid]
macrophages
  LDL binding to macrophages: prevented LDL from binding to macrophages

## OC(COc1ccccc1)Cn1ccnc1I (stereo not shown) [Formula XVI]
[1]
  IC50: 0.0267 µM

## CC(=O)Oc1ccccc1C(=O)O [aspirin]
LOX-1 expression
  ox-LDL mediated LOX-1 expression: reduce ox-LDL mediated LOX-1 expression

## procyanidins
[2]
  ox-LDL uptake in CHO cells expressing LOX-1: inhibited ox-LDL uptake
